Experimental data taken from patent US12054488B2, “Pyrazolopyrimidine compound and preparation method therefor and use thereof in preparation of anti-cancer drug” (SUZHOU RAYMON PHARMACEUTICALS COMPANY, LTD., priority 2018, dated 2024).

Target: PI3K-alpha enzyme (Homo sapiens (Human), UniProt P42336)
Experiment: PI3-Kinase (human) HTRF Assay kit, PI3K alpha enzyme IC50 determination
Format: biochemical
Settings: ATP 10 μM, PIP2 10 μM, 1% DMSO, 30 min at room temperature, double holes per concentration, read-out: half inhibitory concentration (IC50) on PI3K-alpha
Protocol: • 4× Reaction Buffer was diluted to 1× with ddH2O, and 1M DTT was added to make the final concentration of 5 mM. Prepare fresh before each use. For example, to prepare 10 mL 1× Reaction Buffer, adding 2.5 mL 4× Reaction Buffer, 50 μL 1 M DTT, and 7.45 mL ddH2O. Throughout the experiment, freshly prepared 1× Reaction Buffer was used to prepare ATP working solution, substrate and enzyme mixed working solution, etc.
• The compound to be tested was dissolved in DMSO to 1 mM as a storage solution, and then diluted with DMSO in a 4-fold ratio for a total of 10 concentration points. 1 μL of each was added to 24 μL 1× Reaction Buffer. 5 μL of each diluted solution was added into a 384-well plate and contained 1% DMSO.
• 1× reaction buffer was used to prepare 2×PIP2 working solution to make the final concentration of 20 μM and PIP2 reaction final concentration of 10 μM, for example, to prepare 1 ml 1× reaction buffer/PIP2 working solution, add 20 μL of PIP2 to 980 μL 1× reaction buffer. This working solution should be prepared with 0.1-0.2 ml more to meet the control usage and dead volume.
• The kinase was diluted with 2×PIP2 working solution, and the concentration of the kinase working solution was 10 ng/well.
• That is, 2×PIP2 working solution.
• 10 mM ATP was diluted to 40 μM with 1× reaction buffer. In a 20 μL kinase reaction system, the concentration of ATP was 10 μM. For example, to prepare 2 ml ATP working solution, take 8 μL 10 mM ATP and add it to 1992 μL 1× reaction buffer.
• Stop A and Stop B were mixed in a ratio of 3:1 and can be used after at least 2 hours at room temperature.
• DM C, DM A and DM B were mixed in a ratio of 18:1:1, and can be used after at least 2 hours at room temperature.
• Emission Ratio (ER)=[…] Emission signal/620 nm Emission signal • The average emission intensity ratio (Emission Ratio) of the 100% inhibition control is recorded as: ER100% • The average Emission Ratio of the 0% inhibition control is recorded as: ER0%
• The inhibition rate is calculated with the following formula: Inhibition rate=(ERsample−ER0%)/(ER100%−ER0%)×100% [(ERpositive−ERsample)/(ERpositive−ERnegative)*100%]

Chain of PI3K-alpha enzyme (P42336 whole entry): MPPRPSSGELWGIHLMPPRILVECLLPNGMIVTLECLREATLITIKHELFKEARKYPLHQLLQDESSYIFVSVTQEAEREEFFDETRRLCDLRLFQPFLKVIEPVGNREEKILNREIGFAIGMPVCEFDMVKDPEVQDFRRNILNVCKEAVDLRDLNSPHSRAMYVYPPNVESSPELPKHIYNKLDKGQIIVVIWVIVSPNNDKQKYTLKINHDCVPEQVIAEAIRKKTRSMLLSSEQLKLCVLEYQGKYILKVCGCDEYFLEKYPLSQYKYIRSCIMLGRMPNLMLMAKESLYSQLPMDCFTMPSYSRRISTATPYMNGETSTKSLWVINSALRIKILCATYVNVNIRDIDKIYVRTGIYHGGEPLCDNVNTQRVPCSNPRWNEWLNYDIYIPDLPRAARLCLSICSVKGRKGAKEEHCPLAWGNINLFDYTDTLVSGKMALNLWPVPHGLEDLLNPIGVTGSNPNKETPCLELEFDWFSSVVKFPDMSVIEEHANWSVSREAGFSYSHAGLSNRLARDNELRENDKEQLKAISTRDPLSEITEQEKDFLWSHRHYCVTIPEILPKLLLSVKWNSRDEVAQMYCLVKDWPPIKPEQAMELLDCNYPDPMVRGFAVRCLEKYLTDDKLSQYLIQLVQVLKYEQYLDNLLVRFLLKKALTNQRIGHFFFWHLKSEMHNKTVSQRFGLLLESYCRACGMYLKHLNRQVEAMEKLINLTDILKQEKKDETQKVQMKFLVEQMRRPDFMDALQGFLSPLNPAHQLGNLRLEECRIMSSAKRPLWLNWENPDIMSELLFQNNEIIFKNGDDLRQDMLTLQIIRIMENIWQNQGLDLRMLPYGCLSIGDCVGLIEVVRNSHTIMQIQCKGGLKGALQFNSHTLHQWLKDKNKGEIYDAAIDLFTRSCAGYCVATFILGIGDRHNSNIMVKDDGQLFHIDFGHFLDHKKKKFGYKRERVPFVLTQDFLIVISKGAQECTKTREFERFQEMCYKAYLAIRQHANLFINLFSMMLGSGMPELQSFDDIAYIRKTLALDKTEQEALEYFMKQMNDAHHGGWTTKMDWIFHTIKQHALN
Chain of PI3K-alpha enzyme (P27986 whole entry partner): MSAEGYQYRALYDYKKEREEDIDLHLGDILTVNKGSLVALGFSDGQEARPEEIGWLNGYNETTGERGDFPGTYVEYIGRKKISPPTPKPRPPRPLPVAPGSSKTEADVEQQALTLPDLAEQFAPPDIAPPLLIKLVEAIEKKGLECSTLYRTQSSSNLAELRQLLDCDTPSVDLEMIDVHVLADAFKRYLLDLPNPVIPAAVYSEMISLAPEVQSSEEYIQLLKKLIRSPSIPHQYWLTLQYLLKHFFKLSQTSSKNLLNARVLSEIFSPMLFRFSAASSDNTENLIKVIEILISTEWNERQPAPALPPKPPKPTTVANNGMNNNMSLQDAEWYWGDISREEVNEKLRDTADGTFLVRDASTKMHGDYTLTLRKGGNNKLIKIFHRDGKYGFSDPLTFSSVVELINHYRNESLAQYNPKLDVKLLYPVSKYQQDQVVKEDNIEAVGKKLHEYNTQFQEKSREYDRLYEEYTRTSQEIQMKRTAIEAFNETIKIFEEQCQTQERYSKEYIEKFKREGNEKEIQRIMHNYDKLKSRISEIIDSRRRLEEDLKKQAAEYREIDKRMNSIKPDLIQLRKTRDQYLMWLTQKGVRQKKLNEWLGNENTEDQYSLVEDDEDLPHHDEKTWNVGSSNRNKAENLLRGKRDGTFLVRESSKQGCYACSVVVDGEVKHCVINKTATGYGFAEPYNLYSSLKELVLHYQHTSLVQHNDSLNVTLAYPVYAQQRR

| Structure (SMILES) | IC50 [nM] |
| --- | --- |
| CC(C)(O)c1ccc(NC(=O)Nc2ccc(-c3nc(N4CCOCC4)c4[nH]nc(N)c4n3)cc2)cc1 [Compound I-2, 1-(4-(3-amino-7-morpholino-1H-pyrazolo[4,3-d]pyrimidin-5-yl)phenyl)-3-(4(2-hydroxypropan-2-yl)phenyl)urea] | 89.6 |
| CS(=O)(=O)NC(=O)Cc1ccc(NC(=O)Nc2ccc(-c3nc(N4CCOCC4)c4[nH]nc(N)c4n3)cc2)cc1 [Compound I-3, 2-(4-(3-(4-(3-amino-7-morpholino-1H-pyrazolo[4,3-d]pyrimidin-5-yl)phenyl)ureido)phenyl)-N-(methylsulfonyl)acetamide] | 89.1 |
| CC1(C)C(=O)Nc2cc(NC(=O)Nc3ccc(-c4nc(N5CCOCC5)c5[nH]nc(N)c5n4)cc3)ccc21 [Compound I-4, 1-(4-(3-amino-7-morpholino-1H-pyrazolo[4,3-d]pyrimidin-5-yl)phenyl)-3-(3,3-dimethyl-2-oxoindolin-6-yl)urea] | 108 |
| Nc1n[nH]c2c(N3CCOCC3)nc(-c3ccc(NC(=O)Nc4ccc(CO)c(C(F)(F)F)c4)cc3)nc12 [Compound I-5, 1-(4-(3-amino-7-morpholino-1H-pyrazolo[4,3-d]pyrimidin-5-yl)phenyl)-3-(4-(hydroxymethyl)-3-(trifluoromethyl)phenyl)urea] | 228 |

Stronger by IC50, values ahead:

| IC50 [nM] | Structure (SMILES) |
| --- | --- |
| 10.7 | Nc1n[nH]c2c(N3CCOCC3)nc(-c3ccc(NC(=O)Nc4ccc(CO)cc4)cc3)nc12 [Compound I-1, 1-(4-(3-amino-7-morpholino-1H-pyrazolo[4,3-d]pyrimidin-5-yl)phenyl)-3-(4-(hydroxymethyl)phenyl)urea] |
| 40.9 | Nc1n[nH]c2c(N3CCOCC3)nc(-c3ccc(NC(=O)Nc4ccc(COCCN5CCOCC5)cc4)cc3)nc12 [Compound I-6, 1-(4-(3-amino-7-morpholino-1H-pyrazolo[4,3-d]pyrimidin-5-yl)phenyl)-3-(4-((2-morpholinoethoxy)methyl)phenyl)urea] |
